According to patent US8361998B2, “Compounds and their use as IKACh blockers” (AstraZeneca AB, priority 2010, dated 2013):

Target: T1, human cardiac ion channel proteins hKir3.1/Kir3.4 (Homo sapiens, UniProt P48544+P48549)
T1 construct: expressed in transfected cells
T1 sequence (P48549 1-501): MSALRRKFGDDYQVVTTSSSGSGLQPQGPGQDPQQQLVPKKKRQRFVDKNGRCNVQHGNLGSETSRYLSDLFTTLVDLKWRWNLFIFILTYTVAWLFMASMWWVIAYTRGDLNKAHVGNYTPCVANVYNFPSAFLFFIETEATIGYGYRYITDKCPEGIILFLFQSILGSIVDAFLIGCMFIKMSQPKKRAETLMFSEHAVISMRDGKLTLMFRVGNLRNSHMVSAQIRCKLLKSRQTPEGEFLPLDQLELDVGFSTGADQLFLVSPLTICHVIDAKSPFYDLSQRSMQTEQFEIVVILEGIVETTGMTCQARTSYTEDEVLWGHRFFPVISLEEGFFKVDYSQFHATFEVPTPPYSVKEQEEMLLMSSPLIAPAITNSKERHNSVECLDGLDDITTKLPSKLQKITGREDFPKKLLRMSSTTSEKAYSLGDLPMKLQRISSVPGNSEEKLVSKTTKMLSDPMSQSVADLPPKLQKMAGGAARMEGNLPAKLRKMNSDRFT
T1 sequence (P48544 1-419): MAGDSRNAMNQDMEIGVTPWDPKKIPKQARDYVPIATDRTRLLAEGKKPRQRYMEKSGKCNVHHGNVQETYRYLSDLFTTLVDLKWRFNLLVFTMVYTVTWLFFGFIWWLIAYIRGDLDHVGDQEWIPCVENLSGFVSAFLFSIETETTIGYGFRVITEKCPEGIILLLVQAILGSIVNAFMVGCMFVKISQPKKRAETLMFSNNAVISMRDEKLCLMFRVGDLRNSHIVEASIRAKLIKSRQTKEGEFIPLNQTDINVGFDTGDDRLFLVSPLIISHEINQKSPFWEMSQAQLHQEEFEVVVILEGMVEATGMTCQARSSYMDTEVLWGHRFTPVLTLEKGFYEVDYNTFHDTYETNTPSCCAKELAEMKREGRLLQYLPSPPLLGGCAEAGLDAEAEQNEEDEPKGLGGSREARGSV
Test: Atomic Absorption Screening (AAS) Rb efflux assay of hKir3.1/Kir3.4 block, carbachol/high K+ stimulated, 10-pt or 7-pt CR
Assay type: cell-based
Conditions: 10-pt CR (0.003 to 67 μmol/L), AAS Rb efflux, CHO-K1 cells expressing hKir3.1/Kir3.4; mean of >4 replicates; read-out: IKACh IC50 10-pt CR, AAS
How it was run: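 CHO-K1 cells stably co-expressing human Kir3.1/Kir3.4 were Rb-loaded for 3 h at 37° C, preincubated with compound 5 min at RT, then stimulated 10 min with 10 μM carbachol plus 20 mM KCl (final). Supernatant Rb was measured by atomic absorption. Compounds ran at 0.003–67 μmol/L (10-pt) or 0.037–27 μmol/L (7-pt), threefold dilutions; IC50s are means of >4 or >3 replicates respectively.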

With `CC(C)[C@@H](CN1CCC(O)CC1)N(C)C(=O)c1ccc(Cl)cc1` [Example 27, (S)-4-Chloro-N-(1-(4-hydroxypiperidin-1-yl)-3-methylbutan-2-yl)-N-methylbenzamide] as the molecule, how does the IC50 read?
Its IC50 is 1.1 µM.

How did the IC50 turn out when `COCC1CN(C[C@H](C(C)C)N(C)C(=O)c2ccc(F)c(F)c2)C1` [Example 28, (S)-3,4-Difluoro-N-(1-(3-(methoxymethyl)azetidin-1-yl)-3-methylbutan-2-yl)-N-methylbenzamide] was run?
The IC50 was 19 µM.

For `CC[C@H](C)[C@@H](CN1CC(O)C1)N(C)C(=O)c1ccc(Cl)cc1` [Example 29.2, 4-Chloro-N-((2S,3S)-1-(3-hydroxyazetidin-1-yl)-3-methylpentan-2-yl)-N-methylbenzamide], which IC50 is on record?
The IC50 was 0.16 µM.

For `CCc1ccc(C(=O)N(C)[C@H](CN2CC(O)C2)[C@@H](C)CC)cc1` [Example 29.3, 4-Ethyl-N-((2S,3S)-1-(3-hydroxyazetidin-1-yl)-3-methylpentan-2-yl)-N-methylbenzamide], which IC50 is on record?
The IC50 was 0.22 µM.

Which IC50 does the source give for `CC[C@H](C)[C@@H](CN1CC(O)C1)N(C)C(=O)c1ccccc1` [Example 29.4, N-((2S,3S)-1-(3-Hydroxyazetidin-1-yl)-3-methylpentan-2-yl)-N-methylbenzamide] here?
The IC50 was 12 µM.

For `CC[C@H](C)[C@@H](CN1CC(O)C1)N(C)C(=O)c1ccc(C#N)cc1` [Example 29.5, 4-Cyano-N-((2S,3S)-1-(3-hydroxyazetidin-1-yl)-3-methylpentan-2-yl)-N-methylbenzamide], which IC50 is on record?
Its IC50 is 12 µM.

Which IC50 does the source give for `CC[C@H](C)[C@@H](CN1CC(O)C1)N(C)C(=O)c1ccc(OC)cc1` [Example 29.6, N-((2S,3S)-1-(3-Hydroxyazetidin-1-yl)-3-methylpentan-2-yl)-4-methoxy-N-methylbenzamide] here?
Its IC50 is 1.6 µM.

With `CC[C@H](C)[C@@H](CN1CC(O)C1)N(C)C(=O)c1cc(C)ccc1OC` [Example 29.8, N-((2S,3S)-1-(3-Hydroxyazetidin-1-yl)-3-methylpentan-2-yl)-2-methoxy-N,5-dimethylbenzamide] as the molecule, how does the IC50 read?
Its IC50 is 11 µM.

Which IC50 does the source give for `CC[C@H](C)[C@@H](CN1CC(O)C1)N(C)C(=O)c1cc(Cl)ccc1OC` [Example 29.9, 5-Chloro-N-((2S,3S)-1-(3-hydroxyazetidin-1-yl)-3-methylpentan-2-yl)-2-methoxy-N-methylbenzamide] here?
The IC50 was 16 µM.

`CO[C@H](C)[C@@H](CN1CC(O)C1)N(C)C(=O)c1ccc(Cl)cc1` [Example 30, 4-Chloro-N-((2R,3R)-1-(3-hydroxyazetidin-1-yl)-3-methoxybutan-2-yl)-N-methylbenzamide] was tested. Which IC50 did it give?
Its IC50 is 6.3 µM.

Which IC50 does the source give for `CCC[C@@H](CN1CC(OCC)C1)N(C)C(=O)c1ccc(Cl)cc1` [Example 31.1, (S)-4-Chloro-N-(1-(3-ethoxyazetidin-1-yl)pentan-2-yl)-N-methylbenzamide] here?
The IC50 was 0.43 µM.

For `CCC[C@@H](CN1CC(OC)C1)N(C)C(=O)c1ccc(Cl)cc1` [Example 31.2, (S)-4-Chloro-N-(1-(3-methoxyazetidin-1-yl)pentan-2-yl)-N-methylbenzamide], which IC50 is on record?
Its IC50 is 5.9 µM.

With `CCC[C@@H](CN1CC(OCC#N)C1)N(C)C(=O)c1ccc(Cl)cc1` [Example 31.3, 4-chloro-N-{(2S)-1-[3-(cyanomethoxy)azetidin-1-yl]pentan-2-yl}-N-methylbenzamide] as the molecule, how does the IC50 read?
Its IC50 is 1.7 µM.

For `CCC[C@@H](CN1CC(OC(C)C)C1)N(C)C(=O)c1ccc(Cl)cc1` [Example 31.4, 4-chloro-N-methyl-N-{(25)-1-[3-(propan-2-yloxy)azetidin-1-yl]pentan-2-yl}benzamide], which IC50 is on record?
The IC50 was 0.33 µM.

For `CCCC[C@@H](CN1CC(O)C1)N(C)C(=O)c1ccc(Cl)cc1` [Example 33.1, (S)-4-chloro-N-(1-(3-hydroxyazetidin-1-yl)hexan-2-yl)-N-methylbenzamide], which IC50 is on record?
Its IC50 is 0.12 µM.

`CCCC[C@@H](CN1CC(O)C1)N(C)C(=O)c1ccc(F)c(F)c1` [Example 33.2, 3,4-Difluoro-N-[(2S)-1-(3-hydroxyazetidin-1-yl)hexan-2-yl]-N-methylbenzamide] was tested. Which IC50 did it give?
The IC50 was 0.32 µM.

With `CCCC[C@@H](CN1CC(O)C1)N(C)C(=O)c1ccc(C#N)cc1F` [Example 33.3, 4-Cyano-2-fluoro-N-[(2S)-1-(3-hydroxyazetidin-1-yl)hexan-2-yl]-N-methylbenzamide] as the molecule, how does the IC50 read?
Its IC50 is 0.84 µM.

With `CCCC[C@@H](CN1CC(O)C1)N(C)C(=O)c1ccccc1` [Example 33.5, N-[(2S)-1-(3-Hydroxyazetidin-1-yl)hexan-2-yl]-N-methylbenzamide] as the molecule, how does the IC50 read?
The IC50 was 1 µM.

For `CCCC[C@@H](CN1CC(O)C1)N(C)C(=O)c1ccc(O)cc1` [Example 33.6, 4-Hydroxy-N-[(2S)-1-(3-hydroxyazetidin-1-yl)hexan-2-yl]-N-methylbenzamide], which IC50 is on record?
The IC50 was 11 µM.

For `CCCC[C@@H](CN1CC(O)C1)N(C)C(=O)c1ccc(F)c(Cl)c1` [Example 33.8, 3-Chloro-4-fluoro-N-[(2S)-1-(3-hydroxyazetidin-1-yl)hexan-2-yl]-N-methylbenzamide], which IC50 is on record?
The IC50 was 0.16 µM.

With `CCCC[C@@H](CN1CC(O)C1)N(C)C(=O)c1cc(F)ccc1F` [Example 33.9, 2,5-Difluoro-N-[(2S)-1-(3-hydroxyazetidin-1-yl)hexan-2-yl]-N-methylbenzamide] as the molecule, how does the IC50 read?
Its IC50 is 4.3 µM.

For `CCCC[C@@H](CN1CC(O)C1)N(C)C(=O)c1cccc(C(F)F)c1` [Example 33.10, 3-(Difluoromethyl)-N-[(2S)-1-(3-hydroxyazetidin-1-yl)hexan-2-yl]-N-methylbenzamide], which IC50 is on record?
The IC50 was 1.1 µM.

Which IC50 does the source give for `CCC[C@@H](CN1CC(O)C1)N(C(=O)c1ccc(Cl)cc1)C(C)C` [Example 34.1, 4-Chloro-N-[(2S)-1-(3-hydroxyazetidin-1-yl)pentan-2-yl]-N-(propan-2-yl)benzamide] here?
The IC50 was 3.3 µM.

With `CCC[C@@H](CN1CC(O)C1)N(C(=O)c1ccc(F)c(F)c1)C(C)C` [Example 34.2, 3,4-Difluoro-N-[(2S)-1-(3-hydroxyazetidin-1-yl)pentan-2-yl]-N-(propan-2-yl)benzamide] as the molecule, how does the IC50 read?
The IC50 was 11 µM.

With `CN(C(=O)c1ccc(Cl)cc1)[C@@H](CN1CC(O)C1)C1CCC1` [Example 35.1, 4-Chloro-N-[(1R)-1-cyclobutyl-2-(3-hydroxyazetidin-1-yl)ethyl]-N-methylbenzamide] as the molecule, how does the IC50 read?
The IC50 was 3.4 µM.

`CN(C(=O)c1ccc(C#N)cc1)[C@@H](CN1CC(O)C1)C1CCC1` [Example 35.2, 4-Cyano-N-[(1R)-1-cyclobutyl-2-(3-hydroxyazetidin-1-yl)ethyl]-N-methylbenzamide] was tested. Which IC50 did it give?
Its IC50 is 14 µM.

`CN(C(=O)c1ccc(OC(F)F)cc1)[C@@H](CN1CC(O)C1)C1CCC1` [Example 35.3, N-[(1R)-1-Cyclobutyl-2-(3-hydroxyazetidin-1-yl)ethyl]-4-(difluoromethoxy)-N-methylbenzamide] was tested. Which IC50 did it give?
Its IC50 is 8.7 µM.

`Cc1cc(C(=O)N(C)[C@@H](CN2CC(O)C2)C2CCC2)ccc1F` [Example 35.4, N-[(1R)-1-Cyclobutyl-2-(3-hydroxyazetidin-1-yl)ethyl]-4-fluoro-N,3-dimethylbenzamide] was tested. Which IC50 did it give?
The IC50 was 0.66 µM.

`CN(C(=O)c1ccc(F)cc1)[C@@H](CN1CC(O)C1)C1CCC1` [Example 35.5, N-[(1R)-1-Cyclobutyl-2-(3-hydroxyazetidin-1-yl)ethyl]-4-fluoro-N-methylbenzamide] was tested. Which IC50 did it give?
Its IC50 is 11 µM.

How did the IC50 turn out when `CN(C(=O)c1ccc(F)cc1Cl)[C@@H](CN1CC(O)C1)C1CCC1` [Example 35.6, 2-Chloro-N-[(1R)-1-cyclobutyl-2-(3-hydroxyazetidin-1-yl)ethyl]-4-fluoro-N-methylbenzamide] was run?
The IC50 was 4.6 µM.

With `CN(C(=O)c1ccc(F)c(F)c1)[C@@H](CN1CC(O)C1)C1CCC1` [Example 35.7, N-[(1R)-1-Cyclobutyl-2-(3-hydroxyazetidin-1-yl)ethyl]-3,4-difluoro-N-methylbenzamide] as the molecule, how does the IC50 read?
The IC50 was 3.9 µM.

Which IC50 does the source give for `CN(C(=O)c1cccc(C(F)F)c1)[C@@H](CN1CC(O)C1)C1CCC1` [Example 35.8, N-[(1R)-1-Cyclobutyl-2-(3-hydroxyazetidin-1-yl)ethyl]-3-(difluoromethyl)-N-methylbenzamide] here?
Its IC50 is 8 µM.

How did the IC50 turn out when `CN(C(=O)c1ccc(F)c(C#N)c1)[C@@H](CN1CC(O)C1)C1CCC1` [Example 35.9, 3-Cyano-N-[(1R)-1-cyclobutyl-2-(3-hydroxyazetidin-1-yl)ethyl]-4-fluoro-N-methylbenzamide] was run?
The IC50 was 4.6 µM.

How did the IC50 turn out when `CN(C(=O)c1ccc(F)cc1F)[C@@H](CN1CC(O)C1)C1CCC1` [Example 35.10, N-[(1R)-1-Cyclobutyl-2-(3-hydroxyazetidin-1-yl)ethyl]-2,4-difluoro-N-methylbenzamide] was run?
Its IC50 is 15 µM.
